Measured values from patent US20110306580A1 (DONG WHA PHARMACEUTICAL CO ., LTD., priority 2009, published 2011).

Test system: ROS17/2.8 cells
Assay: Cell growth of ROS17/2.8 cells by the MTT method (formed formazan)
Type: cell-based, rat
Conditions: for activity at 0.02 µM: Rattus norvegicus, 2×10^−5M Test Compound solution diluted 1000 fold, read-out: Amount of formed formazan, Solution 8 (Test Compound alone); for activity at 0.02 µM / Amount of formed formazan, Solution 10 (a group of a drug combination): percentage to Solution 7 addition group, about 48 hours, average ± standard deviation of four wells; for Relative index of Solution 10 (a group of a drug combination) / Amount of formed formazan, Solution 10 (a group of a drug combination): Test Compound in combination with 1α,25-dihydroxyvitamin D3; for Relative index of Solution 10 (a group of a drug combination) / Relative index of Solution 8 (Test Compound alone): amount of formed formazan, Solution 7 = 1.00
Description: 100 μL of a 10% FCS-αMEM comprising either DMSO and ethanol (referred to as Solution 7, hereinafter), a Test Compound solution and ethanol (referred to as Solution 8, hereinafter), a 1α,25-dihydroxyvitamin D3 solution and DMSO (referred to as Solution 9, hereinafter) or a Test Compound solution and the 1α,25-dihydroxyvitamin D3 solution (referred to as Solution 10, hereinafter) was dispensed. The ROS17/2.8 cells were inoculated to a medium at a density of 5×10^3 cells/100 μL/well. After culture of the cells for about 48 hours, the effect of Test Compound and 1α,25-dihydroxyvitamin D3 on the cell growth of the ROS17/2.8 cells was evaluated using the MTT method. Namely, after culture of the cells for about 44 hours, an MTT solution (3-[4,5-dimethylthiazol-2-yl]-2,5-diphenyltetrazolium bromide 2 mg/mL) was added in an amount of 25 μL/well, and the cells were further cultured for four hours. After the medium was removed, DMSO was added in an amount of 100 μL/well so as to dissolve the formed formazan. The amount of the formed formazan was determined by measuring the absorbance (at 560 nm) of the solution by a microplate reader.
The 10% FCS-αMEM comprising Solution 7 was prepared by diluting DMSO by 1000 fold with the 10% FCS-αMEM, and diluting ethanol by 10000 fold with the 10% FCS-αMEM. The 10% FCS-αMEM comprising Solution 8 was prepared by diluting a 2×10^−5M Test Compound solution by 1000 fold with the 10% FCS-αMEM, and diluting ethanol by 10000 fold with the 10% FCS-αMEM. The 10% FCS-αMEM comprising Solution 9 was prepared by diluting 2×10^−3M 1α,25-dihydroxyvitamin D3 solution by 10000 fold with the 10% FCS-αMEM, and diluting DMSO by 1000 fold with the 10% FCS-αMEM. The 10% FCS-αMEM comprising Solution 10 was prepared by diluting a 2×10^−5M Test Compound solution by 1000 fold with the 10% FCS-αMEM, and diluting 2×10^−3M 1α,25-dihydroxyvitamin D3 solution by 10000 fold with the 10% FCS-αMEM.
The amount of the formed formazan in each solution addition group was obtained in terms of a percentage to the average value of the amounts of formed formazan in four wells in a Solution 7 addition group. All the determined values were shown in terms of the average value±standard deviation of the four wells of each solution addition group.

SMILES | activity at 0.02 µM [%] | Relative index of Solution 10 (a group of a drug combination) | Amount of formed formazan, Solution 10 (a group of a drug combination) | Relative index of Solution 8 (Test Compound alone)
CCc1sc(C2CCCCC2)nc1-c1ccc(OCCCCOc2ccc(/C(N)=N/O)cc2)cc1 [Compound 21, N-hydroxy-4-{4-[4-(2-cyclohexyl-5-ethyl-1,3-thiazol-4-yl)phenoxy]butoxy}benzamidine] | 105 ± 2.5 | 1.11 | 111 ± 1.7 # % | 1.05
Cc1nc(-c2ccc(OCc3cccc(COc4ccc(/C(N)=N/O)cc4)c3)cc2)c(C(C)C)s1 [Compound 22, N-hydroxy-4-{3-[4-(5-isopropyl-2-methyl-1,3-thiazol-4-yl)phenoxymethyl]benzyloxy}benzamidine] | 110 ± 4.1 | 1.22 | 122 ± 2.1 ## % | 1.10
Cc1nc(-c2ccc(OCCCCCOc3ccc(/C(N)=N/O)cc3)cc2)c(CCn2ccnc2)s1 [Compound 23, N-hydroxy-4-{5-[4-(5-(2-(imidazol-1-yl)ethyl)-2-methyl-1,3-thiazol-4-yl)phenoxy]pentoxy}benzamidine] | 107 ± 5.5 | 1.23 | 123 ± 10.2 # % | 1.07
Cc1nc(-c2ccc(OCCCCCOc3ccc(/C(N)=N/O)cc3)cc2)c(CCNC(C)C)s1 [Compound 24, N-hydroxy-4-{5-[4-(5-(2-(isopropylamino)ethyl)-2-methyl-1,3-thiazol-4-yl)phenoxy]pentoxy}benzamidine] | 110 ± 4.4 | 1.18 | 118 ± 2.9 ## % | 1.10
Cc1nc(-c2ccc(OCCCCCOc3ccc(/C(N)=N/O)cc3)cc2)c(CCNCCCOC(C)C)s1 [Compound 25, N-hydroxy-4-{5-[4-(5-(2-(3-(isopropoxy)propylamino)ethyl)-2-methyl-1,3-thiazol-4-yl)phenoxy]pentoxy}benzamidine] | 101 ± 3.2 | 1.12 | 112 ± 1.5 # % | 1.01
CCN(CC)CCc1sc(C)nc1-c1ccc(OCCCCCOc2ccc(/C(N)=N/O)cc2)cc1 [Compound 26, N-hydroxy-4-{5-[4-(5-(2-diethylaminoethyl)-2-methyl-1,3-thiazol-4-yl)phenoxy]pentoxy}benzamidine] | 102 ± 2.6 | 1.13 | 113 ± 2.7 # % | 1.02
CC(C)c1nc(-c2ccc(OCCCCCOc3ccc(/C(N)=N/O)cc3)cc2)c(CCN2CCSCC2)s1 [Compound 27, N-hydroxy-4-{5-[4-(2-isopropyl-5-(2-(thiomorpholin-4-yl)ethyl)-1,3-thiazol-4-yl)phenoxy]pentoxy}benzamidine] | 98 ± 1.9 | 1.12 | 112 ± 0.9 ## % | 0.98
CN(C)CCc1sc(C2CCCCC2)nc1-c1ccc(OCCCCCOc2ccc(/C(N)=N/O)cc2)cc1 [Compound 28, N-hydroxy-4-{5-[4-(2-cyclohexyl-5-(2-(dimethylamino)ethyl)-1,3-thiazol-4-yl)phenoxy]pentoxy}benzamidine] | 99 ± 3.5 | 1.11 | 111 ± 2.0 # % | 0.99
CN(C)c1nc(-c2ccc(OCCCCCOc3ccc(/C(N)=N/O)cc3)cc2)c(CCN2CCOCC2)s1 [Compound 29, N-hydroxy-4-{5-[4-(2-dimethylamino-5-(2-(morpholin-4-yl)ethyl)-1,3-thiazol-4-yl)phenoxy]pentoxy}benzamidine] | 102 ± 5.6 | 1.14 | 114 ± 2.6 ## % | 1.02
